No end group written: not given here.
What was measured:
[1] = test system: microbiota in diet-induced obese mice; experiment: interventional treatment of dysbiosis with defensins in diet-induced obese mice (Example 8); assay type: in vivo
Source text: Mice and diets. The experiment elucidates the effect of hBD2 and HD5 on the microbiota in diet-induced obese mice. A run-in period of 13 weeks where mice were fed a very HFD (60% energy from fat) preceded the intervention. Only mice meeting the criteria of a minimum of 12 gram weight gain (approximately 50% of initial bodyweight) during the run-in period were included in the final analyses. […] They were exposed to all experimental tests, but excluded from the analyses.
Treatment regimen. Before the intervention all mice were MR scanned. Cages of mice were allocated to experimental groups based on their fat mass. All subsequent measures were paired with data from the same mouse before the intervention. A LFD (low fat diet) reference group was running in parallel. As controls for the intervention 2 additional groups were included: 1 very HFD and 1 LFD. Experimental mice stayed on the very HFD during the intervention (FIG. 3). The mice were on the experimental diet for 10 weeks. They were co-housed throughout the experiment, 4 mice per cage, 3 cages per group. All tests ran over 3 days, 1 cage per group per day.
Tests. Microbial analyses were carried out to study the microbiota of the intestine.
Longitudinal 16S characterization was conducted on 4 paired samples from 60 mice, 240 samples in total. Each mouse was sampled prior to diet change, 1 week post diet change, 4 weeks post diet change and at termination, thus ensuring a thorough characterization of the faecal microbiota as a result of defensin treatment.

[2] = test system: house dust mite driven model of allergic asthma; experiment: prophylactic intranasal versus oral hBD2 in murine house dust mite driven model of allergic asthma (Example 9); assay type: in vivo, BALB/c mice
Procedure: To determine and assess the efficacy of prophylactic treatment with intranasal (IN) versus oral defensins in a murine house dust mite driven model of allergic asthma.
Treatment regime: Female 7-10 weeks old BALB/c mice were randomly allocated into 5 study groups one day prior to study start and subcutaneously (SC) sensitized to house dust mite (100 μg HDM in 200 μL saline plus Freund's complete adjuvant in 0.9% saline). The mice were treated with hBD2 orally and intranasally respectively at a dose of 1.2 mg/kg/day (0.4 mg/kg TID) starting on day 12 in the morning and continued TID at approximately 6 hours intervals. The last dose was administered on day 14 one hour prior to challenge. The total number of doses were […] hBD2. Mice were then intranasally (IN) challenged with HDM on day 14 (HDM 25 μg in 50 μL of saline) (FIG. 4).
Airway inflammation: At 48 hours post challenge, bronchoalveolar lavage was performed washing the lungs with 3 volumes of cold PBS (0.4; 0.3 and 0.3 mL, total 1 mL). Total and differential leucocyte cell counts were determined on an automated haematological analyser Sysmex XT-2000iV.
Lung function: Starting 48 hours after HDM challenge, measurements of lung resistance and lung compliance were carried out after methacholine challenge (3.125 MCH1; 6.25 MCH2; 12.5 MCH3 and 25 mg/mL MCH4) by anaesthetized, cannulated mice using DSI's Buxco Finepoint RC system. Data are represented as airway resistance at […] methacholine and as dose responsive curves.
Lung sampling for cytokine analysis: After completion of every BAL, lungs were removed from the thorax, snap frozen in liquid nitrogen and stored frozen at −80 degrees Celsius until analysis of cytokine concentration of TNF-α, IL-4, IL-5, IL-6, IL-9, IL-13 and IL-33 in lung homogenate by ELISA.

[3] = hBD2 both oral and intranasal TID, day 12 to day 14 (total 2.0 mg/kg in 8 administrations), versus HDM challenged vehicle
[4] = intranasally administered, not statistically significantly different from the control

## human beta defensin 2 (GIGDPVTCLKSGAICHPVFCPRRYKQIGTCGLPGTKCCKKP; not fully specified (bridges); ends and bridges not checked; listed as Homo sapiens) [hBD2]
[1]; HFD plus hBD2, first 4 weeks post dietary intervention, versus standard HFD
  weight gain: tended to gain less weight
[1]; HFD plus hBD2, week 4 to end of study period
  weight gain: gained similar weight as the standard HFD group
[1]; colon
  abundance of Alloprevotella: no influence on Alloprevotella abundance
  relative abundance of Bifidobacteriaceae: dramatically and statistically significant increased
[1]; small intestine
  relative abundance of Bifidobacteriaceae: dramatically and statistically significant increased
[2]; [3]
  airway resistance: effectively inhibited the increase of airway resistance
  pulmonary compliance: effectively inhibited
[2]; [4]
  IL-4 in lung tissue homogenates: trend towards lowering
  IL-5 in lung tissue homogenates: trend towards lowering
  IL-6 in lung tissue homogenates: trend towards lowering
  IL-9 in lung tissue homogenates: trend towards lowering
  IL-13 in lung tissue homogenates: trend towards lowering
  TNF-α in lung tissue homogenates: trend towards lowering
[2]; oral administration
  IL-4 concentration in lung tissue homogenates: complete normalization of cytokine concentrations
  IL-6 concentration in lung tissue homogenates: complete normalization of cytokine concentrations
  IL-9 concentration in lung tissue homogenates: complete normalization of cytokine concentrations
  IL-13 concentration in lung tissue homogenates: complete normalization of cytokine concentrations
  L-5 (31c) concentration in lung tissue homogenates: complete normalization of cytokine concentrations
  TNF-α concentration in lung tissue homogenates: complete normalization of cytokine concentrations
[2]; oral application
  neutrophil counts in BALF: significantly inhibited neutrophil counts
